In patent US20080119510A1, “Substituted Imidazo [4,5-B] Pyridines As Inhibitors Of Gastric Acid Secretion” (Altana Pharma AG, priority 2004, published 2008):

Tested on: pentagastrin-stimulated acid secretion of the perfused rat stomach
Test: Secretion-inhibiting action on the perfused rat stomach (pentagastrin-stimulated acid secretion)
Assay type: in vivo
Conditions: anesthetized CD rat, dose 3.0 μmol/kg i.d.
Description: In Table A which follows, the influence of the compounds of the formula 1 according to the invention on the pentagastrin-stimulated acid secretion of the perfused rat stomach after intraduodenal administration in vivo is shown.
The abdomen of anesthetized rats (CD rat, female, 200-250 g; 1.5 g/kg i.m. urethane) was opened after tracheotomy by a median upper abdominal incision and a PVC catheter was fixed transorally in the esophagus and another via the pylorus such that the ends of the tubes just projected into the gastric lumen. The catheter leading from the pylorus led outward into the right abdominal wall through a side opening.
After thorough rinsing (about 50-100 ml), warm (37° C.) physiological NaCl solution was continuously passed through the stomach (0.5 ml/min, pH 6.8-6.9; Braun-Unita I). The pH (pH meter 632, glass electrode EA 147; φ=5 mm, Metrohm) and, by titration with a freshly prepared 0.01 N NaOH solution to pH 7 (Dosimat 665 Metrohm), the secreted HCl were determined in the effluent in each case collected at an interval of 15 minutes.
The gastric secretion was stimulated by continuous infusion of […] (=1.65 ml/h) of i.v. pentagastrin (left femoral vein) about 30 min after the end of the operation (i.e. after determination of 2 preliminary fractions). The substances to be tested were administered intraduodenally in a 2.5 ml/kg liquid volume 60 min after the start of the continuous pentagastrin infusion. The body temperature of the animals was kept at a constant 37.8-38° C. by infrared irradiation and heat pads (automatic, stepless control by means of a rectal temperature sensor).
For `CCc1cccc(C)c1CNc1cc(C(=O)N(C)C)nc2c1nc(C)n2C` [Example 2, 5-(Dimethylaminocarbonyl)-7-(2-ethyl-6-methylbenzyl)amino-2,3-dimethyl-3H-imidazo[4,5-b]pyridine], the “Inhibition of acid secretion (%)” value was greater than 30%. With `CCc1cccc(C)c1CNc1cc(OC)nc2c1nc(C)n2C` [Example 6, 7-(2-Ethyl-6-methylbenzyl)amino-5-methoxy-2,3-dimethyl-3H-imidazo[4,5-b]pyridine] the “Inhibition of acid secretion (%)” value was greater than 30%. In the case of `CCc1cccc(C)c1CNc1cc(C(N)=O)nc2c1nc(C)n2C` [Example 3, 5-(Aminocarbonyl)-7-(2-ethyl-6-methylbenzyl)amino-2,3-dimethyl-3H-imidazo[4,5-b]pyridine], the “Inhibition of acid secretion (%)” value is reported as greater than 30%. For `CCc1cccc(C)c1CNc1ccnc2c1nc(C)n2C` [Example 1, 7-(2-Ethyl-6-methylbenzyl)amino-2,3-dimethyl-3H-imidazo[4,5-b]pyridine], the “Inhibition of acid secretion (%)” value was greater than 30%. In the case of `CCc1cccc(C)c1CNc1cc(C(=O)NCCO)nc2c1nc(C)n2C` [Example 5, 7-(2-Ethyl-6-methylbenzyl)amino-5-(2-hydroxyethylaminocarbonyl)-2,3-dimethyl-3H-imidazo[4,5-b]pyridine], the “Inhibition of acid secretion (%)” value is reported as greater than 30%.

Tested on: not given
Test: not given
Conditions: not given
Work on `CCc1cccc(C)c1CNc1cc(C(=O)O)nc2c1nc(C)n2C` [Example 10, 7-(2-ethyl-6-methylbenzyl)amino-2,3-dimethyl-3H-imidazo[4,5-b]pyridine-5-carboxylic Acid] yielded a melting point of 235 to 238 °C. Work on `CCc1cccc(C)c1CNc1ccnc2c1nc(C)n2C` [Example 1, 7-(2-Ethyl-6-methylbenzyl)amino-2,3-dimethyl-3H-imidazo[4,5-b]pyridine] yielded a melting point of 105 to 109 °C.
